According to ChEMBL document CHEMBL1153221, “The identification of structurally novel, selective, orally bioavailable positive modulators of mGluR2” (Bioorg Med Chem Lett, 2010):
In brackets after ≈: the same amount, converted by molar mass. Activity calls are given as the source filed them. No cut-off for these calls is given here.

Key:
[1] = target: T1, D(4) dopamine receptor (Homo sapiens, UniProt P21917); assay: Antagonist activity at human D4 receptor expressed in HEK293 cells co-expressing Gqo5 G-protein by FLIPR assay; type: functional, cell-based
T1 sequence (P21917 whole entry): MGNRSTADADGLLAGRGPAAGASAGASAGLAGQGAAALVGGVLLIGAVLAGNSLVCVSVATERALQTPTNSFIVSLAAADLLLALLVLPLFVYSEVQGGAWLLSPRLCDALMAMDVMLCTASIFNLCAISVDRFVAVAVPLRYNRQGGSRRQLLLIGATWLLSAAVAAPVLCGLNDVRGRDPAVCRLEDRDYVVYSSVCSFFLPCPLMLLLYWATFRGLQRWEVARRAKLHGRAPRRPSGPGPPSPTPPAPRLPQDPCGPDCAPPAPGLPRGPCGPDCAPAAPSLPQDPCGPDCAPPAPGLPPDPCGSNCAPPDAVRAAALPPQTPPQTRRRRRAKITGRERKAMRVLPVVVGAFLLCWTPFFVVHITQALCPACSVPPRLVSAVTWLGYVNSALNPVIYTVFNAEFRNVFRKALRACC

[2] = target: T2, Metabotropic glutamate receptor 2 (Homo sapiens, UniProt Q14416); assay: Positive modulation of human mGluR2 expressed in CHO cells co-expressing Ga16 G-protein assessed as glutamate-induced response by FLIPR assay; type: cell-based
Target sequence in this assay (Q14416 whole entry): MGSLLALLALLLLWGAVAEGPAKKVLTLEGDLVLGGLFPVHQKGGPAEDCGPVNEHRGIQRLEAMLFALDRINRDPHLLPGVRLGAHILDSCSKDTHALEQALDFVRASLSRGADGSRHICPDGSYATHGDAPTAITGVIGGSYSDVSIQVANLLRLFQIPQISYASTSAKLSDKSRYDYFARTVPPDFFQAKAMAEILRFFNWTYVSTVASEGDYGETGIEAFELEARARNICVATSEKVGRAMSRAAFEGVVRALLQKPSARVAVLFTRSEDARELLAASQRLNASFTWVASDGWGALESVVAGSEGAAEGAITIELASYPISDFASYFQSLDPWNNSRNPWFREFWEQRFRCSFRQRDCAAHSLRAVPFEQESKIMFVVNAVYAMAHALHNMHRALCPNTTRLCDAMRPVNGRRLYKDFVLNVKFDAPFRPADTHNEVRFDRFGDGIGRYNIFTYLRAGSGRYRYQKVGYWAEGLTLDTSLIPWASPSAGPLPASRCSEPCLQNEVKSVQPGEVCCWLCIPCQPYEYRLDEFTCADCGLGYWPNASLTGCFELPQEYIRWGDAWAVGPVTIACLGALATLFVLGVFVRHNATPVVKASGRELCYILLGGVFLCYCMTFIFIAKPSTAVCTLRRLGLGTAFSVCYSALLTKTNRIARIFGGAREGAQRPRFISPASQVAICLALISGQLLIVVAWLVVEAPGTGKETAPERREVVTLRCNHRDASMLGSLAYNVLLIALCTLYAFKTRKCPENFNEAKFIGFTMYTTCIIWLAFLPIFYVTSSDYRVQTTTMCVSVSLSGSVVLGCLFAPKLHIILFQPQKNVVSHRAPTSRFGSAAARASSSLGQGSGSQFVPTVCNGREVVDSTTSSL

[3] = target: D(2) dopamine receptor (Homo sapiens, UniProt P14416); assay: Antagonist activity at human D2 receptor expressed in CHO cells co-expressing G0 by [35S]GTPgammaS binding assay; type: functional, cell-based
[4] = target: T2, Metabotropic glutamate receptor 2; assay: Agonist activity at human mGluR2 expressed in CHO cells co-expressing Ga16 G-protein assessed as glutamate-induced response by FLIPR assay; type: functional, cell-based
Target sequence in this assay (Q14416 whole entry): as above

[5] = target: D(3) dopamine receptor (Homo sapiens, UniProt P35462); assay: Antagonist activity at human D3 receptor expressed in CHO cells co-expressing G0 by [35S]GTPgammaS binding assay; type: functional, cell-based
[6] = target: T2, Metabotropic glutamate receptor 2; assay: Positive modulation of human mGluR2 expressed in CHO cells co-expressing Ga16 G-protein assessed as glutamate-induced response by FLIPR assay relative to glutamate; type: cell-based
Target sequence in this assay (Q14416 19-872 limits assumed): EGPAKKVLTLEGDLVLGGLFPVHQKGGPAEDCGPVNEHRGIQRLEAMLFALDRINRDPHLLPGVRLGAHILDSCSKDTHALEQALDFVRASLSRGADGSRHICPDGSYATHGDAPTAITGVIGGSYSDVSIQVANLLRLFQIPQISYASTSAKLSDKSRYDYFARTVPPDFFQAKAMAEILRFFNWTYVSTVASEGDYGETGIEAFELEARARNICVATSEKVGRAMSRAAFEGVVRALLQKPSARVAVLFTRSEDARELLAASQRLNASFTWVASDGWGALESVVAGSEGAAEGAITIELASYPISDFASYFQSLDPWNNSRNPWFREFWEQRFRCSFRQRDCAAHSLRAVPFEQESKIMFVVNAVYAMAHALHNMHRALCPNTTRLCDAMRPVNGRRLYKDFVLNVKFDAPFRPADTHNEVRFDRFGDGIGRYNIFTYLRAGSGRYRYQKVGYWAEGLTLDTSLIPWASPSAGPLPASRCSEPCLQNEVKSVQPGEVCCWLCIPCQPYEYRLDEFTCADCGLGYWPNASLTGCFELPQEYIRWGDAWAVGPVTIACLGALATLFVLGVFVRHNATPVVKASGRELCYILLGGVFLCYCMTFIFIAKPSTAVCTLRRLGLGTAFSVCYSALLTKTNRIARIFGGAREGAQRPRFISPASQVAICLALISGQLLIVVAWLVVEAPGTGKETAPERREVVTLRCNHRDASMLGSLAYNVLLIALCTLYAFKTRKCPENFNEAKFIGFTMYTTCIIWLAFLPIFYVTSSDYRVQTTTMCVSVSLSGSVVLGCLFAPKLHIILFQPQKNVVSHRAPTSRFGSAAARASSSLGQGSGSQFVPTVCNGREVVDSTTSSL

[7] = target: T3, Metabotropic glutamate receptor 1 (Homo sapiens, UniProt Q13255); assay: Antagonist activity at mGluR1; type: functional
[8] = target: T3, Metabotropic glutamate receptor 1; assay: Agonist activity at mGluR1; type: functional
[9] = target: Metabotropic glutamate receptor 4 (Homo sapiens) (UniProt Q14833); assay: Agonist activity at mGluR4; type: functional
[10] = target: Metabotropic glutamate receptor 4 (Homo sapiens) (UniProt Q14833); assay: Antagonist activity at mGluR4; type: functional
[11] = target: T4, Metabotropic glutamate receptor 5 (Homo sapiens, UniProt P41594); assay: Agonist activity at mGluR5; type: functional
[12] = target: T4, Metabotropic glutamate receptor 5; assay: Antagonist activity at mGluR5; type: functional
[13] = target: Metabotropic glutamate receptor 4 (Homo sapiens) (UniProt Q14833); assay: Positive modulation of mGluR4
[14] = target: T4, Metabotropic glutamate receptor 5; assay: Positive modulation of mGluR5
[15] = target: T3, Metabotropic glutamate receptor 1; assay: Positive modulation of mGluR1
Target sequence in this assay (Q13255 19-1194 limits assumed): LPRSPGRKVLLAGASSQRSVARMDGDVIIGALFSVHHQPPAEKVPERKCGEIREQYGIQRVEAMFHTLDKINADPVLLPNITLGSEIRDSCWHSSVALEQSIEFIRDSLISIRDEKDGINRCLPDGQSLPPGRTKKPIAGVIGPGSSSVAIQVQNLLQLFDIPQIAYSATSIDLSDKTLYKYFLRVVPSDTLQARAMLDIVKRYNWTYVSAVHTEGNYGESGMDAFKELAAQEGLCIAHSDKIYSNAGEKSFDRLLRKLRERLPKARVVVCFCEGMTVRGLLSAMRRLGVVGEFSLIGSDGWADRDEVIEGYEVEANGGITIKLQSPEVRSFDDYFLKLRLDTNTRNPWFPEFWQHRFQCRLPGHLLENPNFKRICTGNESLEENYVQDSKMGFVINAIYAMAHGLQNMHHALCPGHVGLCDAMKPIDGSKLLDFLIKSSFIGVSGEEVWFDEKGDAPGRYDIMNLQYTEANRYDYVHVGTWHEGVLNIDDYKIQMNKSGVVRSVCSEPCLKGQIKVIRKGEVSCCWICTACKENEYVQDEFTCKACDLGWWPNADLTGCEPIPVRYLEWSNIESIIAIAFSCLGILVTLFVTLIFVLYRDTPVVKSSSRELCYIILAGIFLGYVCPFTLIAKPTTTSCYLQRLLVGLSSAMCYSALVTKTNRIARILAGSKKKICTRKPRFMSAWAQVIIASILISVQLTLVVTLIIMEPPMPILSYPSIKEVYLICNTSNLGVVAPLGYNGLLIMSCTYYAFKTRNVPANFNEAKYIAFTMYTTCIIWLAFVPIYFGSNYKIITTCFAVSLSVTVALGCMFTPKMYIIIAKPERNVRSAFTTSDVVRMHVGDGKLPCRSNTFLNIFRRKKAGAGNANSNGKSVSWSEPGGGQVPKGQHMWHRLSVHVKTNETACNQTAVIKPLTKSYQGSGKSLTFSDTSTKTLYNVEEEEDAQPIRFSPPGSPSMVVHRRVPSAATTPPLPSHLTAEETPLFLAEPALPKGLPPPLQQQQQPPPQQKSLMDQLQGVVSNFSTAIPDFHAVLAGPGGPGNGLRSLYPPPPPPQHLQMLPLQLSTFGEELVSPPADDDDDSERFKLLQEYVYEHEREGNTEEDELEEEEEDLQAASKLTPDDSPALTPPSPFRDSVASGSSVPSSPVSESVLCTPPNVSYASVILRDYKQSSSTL

[16] = Inhibition of field excitatory postsynaptic potential in Wistar rat medial perforant path dentate gyrus after 20 mins by electrophysiological assay in presence of 10 uM GSK1331268
[17] = Inhibition of field excitatory postsynaptic potential in Wistar rat medial perforant path dentate gyrus after 20 mins by electrophysiological assay; type: functional, tissue-based
[18] = Solubility of the compound; type: physicochemical

D(3) dopamine receptor, sequence (P35462 whole entry): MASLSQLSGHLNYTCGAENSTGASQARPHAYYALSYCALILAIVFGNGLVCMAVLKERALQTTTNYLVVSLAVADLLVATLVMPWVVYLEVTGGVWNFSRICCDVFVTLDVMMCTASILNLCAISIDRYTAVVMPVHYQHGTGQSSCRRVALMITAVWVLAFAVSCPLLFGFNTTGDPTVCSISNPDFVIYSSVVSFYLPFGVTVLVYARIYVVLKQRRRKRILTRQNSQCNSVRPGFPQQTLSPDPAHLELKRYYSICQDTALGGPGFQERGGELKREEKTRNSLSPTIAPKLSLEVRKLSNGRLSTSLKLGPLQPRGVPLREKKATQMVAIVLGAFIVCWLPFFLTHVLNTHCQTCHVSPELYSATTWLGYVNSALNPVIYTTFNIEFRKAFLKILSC
D(2) dopamine receptor, sequence (P14416 whole entry): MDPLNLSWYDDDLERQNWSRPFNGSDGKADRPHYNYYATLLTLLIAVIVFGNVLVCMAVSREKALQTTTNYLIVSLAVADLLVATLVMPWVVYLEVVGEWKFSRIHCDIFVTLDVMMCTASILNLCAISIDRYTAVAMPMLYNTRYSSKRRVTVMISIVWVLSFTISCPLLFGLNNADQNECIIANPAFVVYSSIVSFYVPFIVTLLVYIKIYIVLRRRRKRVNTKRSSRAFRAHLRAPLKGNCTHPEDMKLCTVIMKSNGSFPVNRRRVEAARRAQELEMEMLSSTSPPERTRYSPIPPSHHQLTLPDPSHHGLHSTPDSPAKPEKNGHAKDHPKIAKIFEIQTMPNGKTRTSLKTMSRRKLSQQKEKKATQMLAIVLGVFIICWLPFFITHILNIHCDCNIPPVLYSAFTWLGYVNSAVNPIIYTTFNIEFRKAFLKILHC
Metabotropic glutamate receptor 4 (Homo sapiens), sequence (Q14833 whole entry): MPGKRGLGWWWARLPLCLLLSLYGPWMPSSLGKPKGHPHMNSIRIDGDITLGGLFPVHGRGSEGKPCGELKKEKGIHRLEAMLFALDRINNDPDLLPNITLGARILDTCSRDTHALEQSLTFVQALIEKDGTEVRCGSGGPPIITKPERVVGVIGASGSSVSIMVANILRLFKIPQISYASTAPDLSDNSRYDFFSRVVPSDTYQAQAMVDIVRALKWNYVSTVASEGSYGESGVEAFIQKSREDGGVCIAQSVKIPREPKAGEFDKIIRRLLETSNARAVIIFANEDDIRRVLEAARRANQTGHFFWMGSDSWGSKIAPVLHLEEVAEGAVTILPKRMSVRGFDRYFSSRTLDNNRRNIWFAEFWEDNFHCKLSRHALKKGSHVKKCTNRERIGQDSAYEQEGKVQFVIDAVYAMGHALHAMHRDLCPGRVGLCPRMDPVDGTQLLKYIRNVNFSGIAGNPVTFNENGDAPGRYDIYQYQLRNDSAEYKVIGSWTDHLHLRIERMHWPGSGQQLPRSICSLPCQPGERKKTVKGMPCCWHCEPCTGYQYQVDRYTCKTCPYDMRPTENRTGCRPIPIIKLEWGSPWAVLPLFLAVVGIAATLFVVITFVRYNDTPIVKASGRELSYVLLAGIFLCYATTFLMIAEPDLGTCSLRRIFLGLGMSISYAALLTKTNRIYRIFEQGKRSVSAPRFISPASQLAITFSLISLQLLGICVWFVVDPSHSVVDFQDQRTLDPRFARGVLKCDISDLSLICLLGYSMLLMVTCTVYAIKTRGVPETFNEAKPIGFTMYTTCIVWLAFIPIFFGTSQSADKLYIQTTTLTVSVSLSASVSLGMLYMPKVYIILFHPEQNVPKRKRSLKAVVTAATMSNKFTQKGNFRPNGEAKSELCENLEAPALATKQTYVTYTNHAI

Structure (SMILES) | Ki [1] | EC50 [2] | Ki [3] | EC50 [4] | Ki [5] | Emax [6] | further results
Cn1c(CN2CCC(c3nsc4ccccc34)CC2)nc2ccccc21 | 200 nM | 200 nM | 79.4 nM | 2510 nM | 3980 nM | 84% | 
Cn1c(CN2CCN(c3ncc(C(F)(F)F)cc3Cl)CC2)nc2ccccc21 | 631 nM | 79.4 nM | 5010 nM | 2000 nM | 5010 nM | 71% | Activity [7]: inactive; Activity [8]: inactive; Activity [9]: inactive; Activity [10]: inactive; Activity [11]: inactive; Activity [12]: inactive; Activity [13]: inactive; Activity [14]: inactive; Activity [15]: inactive
Cn1c(CN2CCN(c3nc4ccccc4s3)CC2)nc2ccccc21 | 794 nM | 316 nM | > 10000 nM | 2000 nM | > 10000 nM | 88% | 
Cn1c(CN2CCN(c3ccc(C(F)(F)F)cc3)CC2)nc2ccccc21 | 398 nM | 200 nM | > 10000 nM | 6310 nM | > 10000 nM | 84% | 
COc1ccccc1Oc1ccc(N(Cc2cccnc2)S(=O)(=O)CC(F)(F)F)cc1 |  |  |  |  |  |  | pEC50 [16]: 7.364; pEC50 [17]: 6.864
Cn1c(CN2CCN(c3ccc(C(F)(F)F)cn3)CC2)nc2ccccc21 | 1000 nM | 501 nM | > 10000 nM | 6310 nM | > 10000 nM | 81% | 
Cn1c(CN2CCN(c3ccccn3)CC2)nc2ccccc21 |  | 15800 nM |  |  |  | 100% | 
CCn1c(CN2CCN(c3ncc(C(F)(F)F)cc3Cl)CC2)nc2ccccc21 |  | 63.1 nM |  |  |  |  | 
Cn1c(CN2CCC(c3ccc(C(F)(F)F)cc3)CC2)nc2ccccc21 | 126 nM | 100 nM | 251 nM | 2000 nM | > 10000 nM | 110% | 
Cn1c(CN2CCC(c3cccc(Cl)c3)CC2)nc2ccccc21 | 251 nM | 100 nM | 39.8 nM | 3980 nM | 1580 nM | 92% | 
Cn1c(CN2CCC(c3ccc(Cl)cc3)CC2)nc2ccccc21 | 63.1 nM | 79.4 nM | 15.8 nM | 5010 nM | 316 nM | 91% | 
CCCn1c(CN2CCN(c3ncc(Cl)cn3)CC2)nc2ccccc21 |  | 794 nM |  |  |  |  | 
Cn1c(CN2CCC(c3nc4ccccc4s3)CC2)nc2ccccc21 | 7.94 nM | 158 nM | 398 nM | 3160 nM | > 10000 nM | 76% | 
COCCn1c(CN2CCN(c3ncc(Cl)cn3)CC2)nc2ccccc21 |  | 501 nM |  |  |  |  | 
Cn1c(CN2CCC(c3ncc(C(F)(F)F)cc3Cl)CC2)nc2ccccc21 | 2510 nM | 39.8 nM | 794 nM | 631 nM | 1580 nM | 70% | 
Cn1c(CN2CCC(c3ccccc3F)CC2)nc2ccccc21 |  | 126 nM | 39.8 nM | 3980 nM |  |  | EC50 [7]: > 15800 nM; EC50 [8]: > 15800 nM; EC50 [11]: > 15800 nM; solubility [18]: 31 µg/mL (≈ 95.9 µM); EC50 [12]: > 15800 nM; EC50 [14]: > 15800 nM
Cn1c(CN2CCN(c3ncc(Cl)cn3)CC2)nc2ccccc21 | 2510 nM | 126 nM | > 10000 nM | 1260 nM | > 10000 nM | 69% | Activity [7]: inactive; Activity [8]: inactive; Activity [9]: inactive; Activity [10]: inactive; Activity [11]: inactive; Activity [12]: inactive; Activity [13]: inactive; Activity [14]: inactive; Activity [15]: inactive
Cn1c(CN2CCN(c3ncc(C(F)(F)F)cc3Cl)CC2)nc2cc(C(F)(F)F)ccc21 |  | 2000 nM |  |  |  |  | 
Cn1c(CN2CCN(c3ccc(C#N)cc3)CC2)nc2ccccc21 |  | > 12600 nM |  |  |  |  | 

Structure (SMILES) | Ki [1] | EC50 [2] | Ki [3] | EC50 [4] | Ki [5] | Emax [6] | further results
Cn1c(CN2CCC(c3ccccc3)CC2)nc2ccccc21 | 100 nM | 200 nM | 25.1 nM | 6310 nM | 126 nM | 89% | 
Cn1c(CN2CCC(c3cccc(C(F)(F)F)c3)CC2)nc2ccccc21 | 251 nM | 100 nM | 126 nM | 2510 nM | > 10000 nM | 94% | 
Clc1cnc(N2CCN(Cc3nc4ccccc4n3Cc3ccccc3)CC2)nc1 |  | 126 nM |  |  |  |  | 
Clc1cnc(N2CCN(Cc3nc4ccccc4[nH]3)CC2)nc1 |  | 12600 nM |  |  |  |  | 
FC(F)(F)c1cnc(N2CCN(Cc3nc4ccccc4n3Cc3ccccc3)CC2)c(Cl)c1 |  | 126 nM |  |  |  |  | 
COCCn1c(CN2CCN(c3ncc(C(F)(F)F)cc3Cl)CC2)nc2ccccc21 |  | 158 nM |  |  |  |  | 
FC(F)(F)c1cnc(N2CCN(Cc3nc4ccccc4[nH]3)CC2)c(Cl)c1 |  | 12600 nM |  |  |  |  | 
Cn1c(CN2CCN(c3ccccc3F)CC2)nc2ccccc21 |  | 794 nM |  | 6310 nM |  | 64% | 
Cn1c(CN2CCC(c3ccccn3)CC2)nc2ccccc21 |  | > 3160 nM |  | > 15800 nM |  |  | 
Cn1c(CN2CCN(c3ccccc3C(F)(F)F)CC2)nc2ccccc21 | 631 nM | 316 nM |  | > 15800 nM |  | 84% | 
Cn1c(CN2CCC(c3ccccc3C(F)(F)F)CC2)nc2ccccc21 |  | 316 nM | > 3160 nM | 6310 nM | 501 nM | 94% | 
Cn1c(CN2CCN(c3ncc(C(F)(F)F)cc3Cl)CC2)nc2ccc(F)cc21 |  | 126 nM |  |  |  |  | 
Cn1c(CN2CCN(c3ncc(C(F)(F)F)cc3Cl)CC2)nc2cc(C#N)ccc21 |  | 50.1 nM |  |  |  |  | 
Cn1c(CN2CCN(c3ccc(Cl)cc3F)CC2)nc2ccccc21 | 251 nM | 126 nM |  | 2510 nM |  | 69% | 
Cn1c(CN2CCN(c3ccccc3)CC2)nc2ccccc21 |  | 5010 nM |  | > 15800 nM |  | 100% | 
Cn1c(CN2CCN(c3ccc(Cl)cc3)CC2)nc2ccccc21 | 126 nM | 794 nM | > 10000 nM | > 15800 nM | > 10000 nM |  | 
Cn1c(CN2CCN(c3ncc(C(F)(F)F)cc3Cl)CC2)nc2cc(F)ccc21 |  | 200 nM |  |  |  |  | 
CCCn1c(CN2CCN(c3ncc(C(F)(F)F)cc3Cl)CC2)nc2ccccc21 |  | 2510 nM |  |  |  |  | 
CCn1c(CN2CCN(c3ncc(Cl)cn3)CC2)nc2ccccc21 |  | 158 nM |  |  |  |  | 
